Measured values from paper PMC5218480 (PLoS ONE, 2017).

Tested on: MV-4-11 cells
Assay: Gene expression microarray analysis (Affymetrix PrimeView) and GSEA
Type: cell-based, human
Set-up: RFU PODN (11730768_x_at) / Fold change /veh PODN (11730768_x_at) / RFU LINC00158 (11744669_a_at) / Fold change /veh LINC00158 (11744669_a_at) / RFU DUSP10 (11751237_a_at) / Fold change /veh DUSP10 (11751237_a_at) / RFU ID3 (11757404_x_at) / Fold change /veh ID3 (11757404_x_at) / RFU PLEKHG5 (11737974_s_at) / Fold change /veh PLEKHG5 (11737974_s_at) / RFU LRRC4B (11730491_at) / Fold change /veh LRRC4B (11730491_at) / RFU GIMAP4 (11747438_a_at) / Fold change /veh GIMAP4 (11747438_a_at) / RFU KRT8 (11758183_x_at) / Fold change /veh KRT8 (11758183_x_at) / RFU CNN1 (11734310_a_at) / Fold change /veh CNN1 (11734310_a_at) / RFU VPS37D (11726825_at) / Fold change /veh VPS37D (11726825_at) / RFU C10orf10 (11716522_x_at) / Fold change /veh C10orf10 (11716522_x_at) / RFU KIR2DL2 /// KIR2DL4 /// KIR2DL5A /// KIR2DL5B /// KIR2DS1 /// KIR2DS2 /// KIR2DS3 /// KIR2DS4 /// KIR3DL3 /// KIR3DL3 /// KIR3DS1 (11738374_at) / Fold change /veh KIR2DL2 /// KIR2DL4 /// KIR2DL5A /// KIR2DL5B /// KIR2DS1 /// KIR2DS2 /// KIR2DS3 /// KIR2DS4 /// KIR3DL3 /// KIR3DL3 /// KIR3DS1 (11738374_at) / RFU C1QL1 (11718748_at) / Fold change /veh C1QL1 (11718748_at) / RFU TMPRSS4 (11747572_a_at) / Fold change /veh TMPRSS4 (11747572_a_at) / RFU HAMP (11756126_x_at) / Fold change /veh HAMP (11756126_x_at) / RFU RNFT2 (11725882_a_at) / Fold change /veh RNFT2 (11725882_a_at) / RFU NR4A2 (11747474_a_at) / Fold change /veh NR4A2 (11747474_a_at) / RFU ABCC12 (11746883_a_at) / Fold change /veh ABCC12 (11746883_a_at) / RFU TMEM136 (11760407_x_at) / Fold change /veh TMEM136 (11760407_x_at) / RFU CLDN22 /// WWC2 (11732394_at) / Fold change /veh CLDN22 /// WWC2 (11732394_at) / RFU HLA-DPB1 (11760878_x_at) / Fold change /veh HLA-DPB1 (11760878_x_at) / RFU SPINT1 (11716480_a_at) / Fold change /veh SPINT1 (11716480_a_at) / RFU GAP43 (11754022_s_at) / Fold change /veh GAP43 (11754022_s_at) / RFU A4GNT (11735810_at) / Fold change /veh A4GNT (11735810_at) / RFU PRB3 (11715151_x_at) / Fold change /veh PRB3 (11715151_x_at) / RFU TUBB4B (11761932_at) / Fold change /veh TUBB4B (11761932_at) / RFU CAPN14 (11732068_a_at) / Fold change /veh CAPN14 (11732068_a_at) / RFU TMCC2 (11721928_a_at) / Fold change /veh TMCC2 (11721928_a_at) / RFU IRGQ (11745062_a_at) / Fold change /veh IRGQ (11745062_a_at) / RFU FAM174B (11720279_a_at) / Fold change /veh FAM174B (11720279_a_at) / RFU TMPRSS4 (11748680_a_at) / Fold change /veh TMPRSS4 (11748680_a_at) / RFU FAM212B (11763350_a_at) / Fold change /veh FAM212B (11763350_a_at) / RFU PLEKHG5 (11743358_a_at) / Fold change /veh PLEKHG5 (11743358_a_at) / RFU ZSCAN30 (11745921_a_at) / Fold change /veh ZSCAN30 (11745921_a_at) / RFU CMKLR1 (11741424_a_at) / Fold change /veh CMKLR1 (11741424_a_at) / RFU LOC101060620 /// MAPK8IP1 (11723275_at) / Fold change /veh LOC101060620 /// MAPK8IP1 (11723275_at) / RFU SPTSSB (11747773_x_at) / Fold change /veh SPTSSB (11747773_x_at) / RFU PRSS12 (11739890_at) / Fold change /veh PRSS12 (11739890_at) / RFU BIN1 (11741810_x_at) / Fold change /veh BIN1 (11741810_x_at) / RFU WNT11 (11732464_a_at) / Fold change /veh WNT11 (11732464_a_at) / RFU C10orf10 (11716521_a_at) / Fold change /veh C10orf10 (11716521_a_at) / RFU C5orf56 (11738089_at) / Fold change /veh C5orf56 (11738089_at) / RFU CYB561 (11721691_x_at) / Fold change /veh CYB561 (11721691_x_at) / RFU ANKRD19P (11752326_a_at) / Fold change /veh ANKRD19P (11752326_a_at) / RFU OR2T12 /// OR2T33 /// OR2T8 (11738714_s_at) / Fold change /veh OR2T12 /// OR2T33 /// OR2T8 (11738714_s_at) / RFU VCAN (11748164_a_at) / Fold change /veh VCAN (11748164_a_at) / RFU JSRP1 (11732532_at) / Fold change /veh JSRP1 (11732532_at) / RFU KRTAP10-11 (11738290_x_at) / Fold change /veh KRTAP10-11 (11738290_x_at) / RFU MYO3A (11730013_a_at) / Fold change /veh MYO3A (11730013_a_at) / RFU EBF3 (11725865_a_at) / Fold change /veh EBF3 (11725865_a_at) / RFU CAMK2N1 (11719241_x_at) / Fold change /veh CAMK2N1 (11719241_x_at) / RFU C5orf56 (11738088_a_at) / Fold change /veh C5orf56 (11738088_a_at) / RFU OLFML3 (11715873_a_at) / Fold change /veh OLFML3 (11715873_a_at) / RFU LOC100653217 /// NTM (11731650_a_at) / Fold change /veh LOC100653217 /// NTM (11731650_a_at) / RFU MAPK11 (11762145_a_at) / Fold change /veh MAPK11 (11762145_a_at) / RFU FIZ1 (11724087_x_at) / Fold change /veh FIZ1 (11724087_x_at) / RFU OASL (11726364_x_at) / Fold change /veh OASL (11726364_x_at) / RFU SOX15 (11748057_x_at) / Fold change /veh SOX15 (11748057_x_at) / RFU CD79A (11719716_a_at) / Fold change /veh CD79A (11719716_a_at) / RFU HIST1H1D (11736915_at) / Fold change /veh HIST1H1D (11736915_at) / RFU CASKIN2 (11723855_a_at) / Fold change /veh CASKIN2 (11723855_a_at) / RFU LOC730098 (11760151_x_at) / Fold change /veh LOC730098 (11760151_x_at) / RFU OR4N2 (11742367_at) / Fold change /veh OR4N2 (11742367_at) / RFU PRRT2 (11749266_a_at) / Fold change /veh PRRT2 (11749266_a_at) / RFU SNX32 (11753110_a_at) / Fold change /veh SNX32 (11753110_a_at) / RFU CDHR5 (11726645_a_at) / Fold change /veh CDHR5 (11726645_a_at) / RFU RCAN1 (11760418_a_at) / Fold change /veh RCAN1 (11760418_a_at) / RFU FAM167A (11723789_a_at) / Fold change /veh FAM167A (11723789_a_at) / RFU FAM26E (11764081_at) / Fold change /veh FAM26E (11764081_at) / RFU ISYNA1 (11749810_s_at) / Fold change /veh ISYNA1 (11749810_s_at) / RFU ACY1 (11761880_at) / Fold change /veh ACY1 (11761880_at) / RFU 11764098_at / Fold change /veh 11764098_at / RFU SAMD14 (11745864_x_at) / Fold change /veh SAMD14 (11745864_x_at) / RFU NPB (11741838_a_at) / Fold change /veh NPB (11741838_a_at) / RFU TMPRSS6 (11731388_a_at) / Fold change /veh TMPRSS6 (11731388_a_at) / RFU KRTAP10-2 (11738614_at) / Fold change /veh KRTAP10-2 (11738614_at) / RFU ARHGAP8 /// PRR5-ARHGAP8 (11727945_x_at) / Fold change /veh ARHGAP8 /// PRR5-ARHGAP8 (11727945_x_at) / RFU KRTAP5-7 /// NADSYN1 (11734609_at) / Fold change /veh KRTAP5-7 /// NADSYN1 (11734609_at) / RFU RASL12 (11751679_a_at) / Fold change /veh RASL12 (11751679_a_at) / RFU CDKN2B (11736163_a_at) / Fold change /veh CDKN2B (11736163_a_at) / RFU PRF1 (11729649_at) / Fold change /veh PRF1 (11729649_at) / RFU, ZNF638 /// ZNF638-IT1 / Fold change vs veh, ZNF638 /// ZNF638-IT1 / RFU, PANK3 / Fold change vs veh, PANK3 / RFU, SH3YL1 / Fold change vs veh, SH3YL1 / RFU, ZEB2 / Fold change vs veh, ZEB2 / RFU, NRIP1 / Fold change vs veh, NRIP1 / RFU, PTTG1IP / Fold change vs veh, PTTG1IP / RFU, CAPN2 / Fold change vs veh, CAPN2 / RFU, MED14 / Fold change vs veh, MED14 / RFU, SNORA58 / Fold change vs veh, SNORA58 / RFU, C1orf63 / Fold change vs veh, C1orf63 / RFU, LRRFIP1 / Fold change vs veh, LRRFIP1 / RFU, NDUFAF7 / Fold change vs veh, NDUFAF7 / RFU, SLC12A2 / Fold change vs veh, SLC12A2 / RFU, IBTK / Fold change vs veh, IBTK / RFU, ESF1 / Fold change vs veh, ESF1 / Fold change vs veh, TMEM50B / RFU, TAOK1 / Fold change vs veh, TAOK1 / RFU, ACBD3 / Fold change vs veh, ACBD3 / RFU, TMA16 / Fold change vs veh, TMA16 / RFU, RWDD3 / Fold change vs veh, RWDD3 / RFU, BCAT1 / Fold change vs veh, BCAT1 / RFU, EDEM3 / Fold change vs veh, EDEM3 / RFU, TMEM33 / Fold change vs veh, TMEM33 / RFU, WDR75 / Fold change vs veh, WDR75 / RFU, AHCTF1 / Fold change vs veh, AHCTF1 / RFU, TFRC / Fold change vs veh, TFRC / RFU, ZDHHC17 / Fold change vs veh, ZDHHC17 / RFU, NOM1 / Fold change vs veh, NOM1 / RFU, ARL8B / Fold change vs veh, ARL8B / RFU, ZBTB11 / Fold change vs veh, ZBTB11 / RFU, TAMM41 / Fold change vs veh, TAMM41 / RFU, KIAA1704 /// LOC100996395 / Fold change vs veh, KIAA1704 /// LOC100996395 / RFU, ING1 / Fold change vs veh, ING1 / RFU, TRMT61B / Fold change vs veh, TRMT61B / RFU, FUBP3 / Fold change vs veh, FUBP3 / RFU, TP53 / Fold change vs veh, TP53 / RFU, TNKS2 / Fold change vs veh, TNKS2 / RFU, ZFP14 / Fold change vs veh, ZFP14 / RFU, ACTR2 / Fold change vs veh, ACTR2 / RFU, PPP3R1 / Fold change vs veh, PPP3R1 / RFU, PIK3R1 / Fold change vs veh, PIK3R1 / RFU, HNRNPA1 / Fold change vs veh, HNRNPA1 / RFU, RNF170 / Fold change vs veh, RNF170 / RFU, ZNF28 / Fold change vs veh, ZNF28 / RFU, RNGTT / Fold change vs veh, RNGTT / RFU, OGT / Fold change vs veh, OGT / RFU, BRD1 / Fold change vs veh, BRD1 / RFU, MARS / Fold change vs veh, MARS / RFU, ZNF655 / Fold change vs veh, ZNF655 / RFU, FAHD1 / Fold change vs veh, FAHD1 / RFU, BDP1 / Fold change vs veh, BDP1 / RFU, LRRCC1 / Fold change vs veh, LRRCC1 / RFU, ARID1A / Fold change vs veh, ARID1A / RFU, ZNF146 / Fold change vs veh, ZNF146 / RFU, ZNF330 / Fold change vs veh, ZNF330 / RFU, GPN3 / Fold change vs veh, GPN3 / RFU, C9orf123 / Fold change vs veh, C9orf123 / RFU, N4BP2L2 / Fold change vs veh, N4BP2L2 / RFU, ARFIP1 / Fold change vs veh, ARFIP1 / RFU, FAM179B / Fold change vs veh, FAM179B / RFU, BCL10 / Fold change vs veh, BCL10 / RFU, UHRF1BP1L / Fold change vs veh, UHRF1BP1L / RFU, BET1 / Fold change vs veh, BET1 / RFU, CNOT2 / Fold change vs veh, CNOT2 / RFU, ZNF268 / Fold change vs veh, ZNF268 / Fold change vs veh, ZNF507 / RFU, DGCR2 / Fold change vs veh, DGCR2 / RFU, WDSUB1 / Fold change vs veh, WDSUB1 / Fold change vs veh, HSP90B1 /// MIR3652 / RFU, ADSS / Fold change vs veh, ADSS / RFU, GK / Fold change vs veh, GK / RFU, ZNF148 / Fold change vs veh, ZNF148 / RFU, TAF9 / Fold change vs veh, TAF9 / RFU, SLC1A5 / Fold change vs veh, SLC1A5 / RFU, SLMO2 / Fold change vs veh, SLMO2 / RFU, ABCC4 / Fold change vs veh, ABCC4 / RFU, LOC101060439 /// RAP1B / Fold change vs veh, LOC101060439 /// RAP1B / RFU, RFX7 / Fold change vs veh, RFX7 / RFU, GTPBP10 / Fold change vs veh, GTPBP10 / RFU, CNEP1R1 / Fold change vs veh, CNEP1R1 / RFU, BIVM-ERCC5 /// ERCC5 / Fold change vs veh, BIVM-ERCC5 /// ERCC5 / RFU, ILF3 / Fold change vs veh, ILF3 / RFU 11762660_at / Fold change /veh 11762660_at / RFU VCAN (11757783_s_at) / Fold change /veh VCAN (11757783_s_at) / RFU DDX43 (11728927_at) / Fold change /veh DDX43 (11728927_at) / RFU KRT8 (11758188_x_at) / Fold change /veh KRT8 (11758188_x_at) / RFU NKD1 (11759106_at) / Fold change /veh NKD1 (11759106_at) / RFU SRD5A1 (11742802_a_at) / Fold change /veh SRD5A1 (11742802_a_at) / RFU TPSAB1 /// TPSB2 (11721975_s_at) / Fold change /veh TPSAB1 /// TPSB2 (11721975_s_at) / RFU GSTM3 (11746129_a_at) / Fold change /veh GSTM3 (11746129_a_at) / RFU IL23R (11737362_x_at) / Fold change /veh IL23R (11737362_x_at) / RFU TMEM51 (11727254_a_at) / Fold change /veh TMEM51 (11727254_a_at) / RFU PIWIL2 (11732686_x_at) / Fold change /veh PIWIL2 (11732686_x_at) / RFU ORM1 (11744905_x_at) / Fold change /veh ORM1 (11744905_x_at) / RFU CCDC152 (11743942_at) / Fold change /veh CCDC152 (11743942_at) / RFU ECM1 (11717891_a_at) / Fold change /veh ECM1 (11717891_a_at) / RFU IL23R (11748794_a_at) / Fold change /veh IL23R (11748794_a_at) / RFU TNFAIP8L3 (11732012_x_at) / Fold change /veh TNFAIP8L3 (11732012_x_at) / RFU MBOAT4 (11741988_at) / Fold change /veh MBOAT4 (11741988_at) / RFU 11764193_at / Fold change /veh 11764193_at / RFU TMEM53 (11763286_at) / Fold change /veh TMEM53 (11763286_at) / RFU MAGEB2 (11727129_at) / Fold change /veh MAGEB2 (11727129_at) / RFU TMEM200A (11744735_a_at) / Fold change /veh TMEM200A (11744735_a_at) / RFU CCDC152 (11751479_a_at) / Fold change /veh CCDC152 (11751479_a_at) / RFU FAM211A (11726209_a_at) / Fold change /veh FAM211A (11726209_a_at) / RFU RGS16 (11746705_a_at) / Fold change /veh RGS16 (11746705_a_at) / RFU VCAN (11755009_s_at) / Fold change /veh VCAN (11755009_s_at) / RFU RHOB (11743442_s_at) / Fold change /veh RHOB (11743442_s_at) / RFU RGS16 (11720943_a_at) / Fold change /veh RGS16 (11720943_a_at) / RFU RGS16 (11720944_at) / Fold change /veh RGS16 (11720944_at) / RFU, VPS4B / Fold change vs veh, VPS4B / RFU, CREB1 / Fold change vs veh, CREB1 / RFU, DNAJC13 / Fold change vs veh, DNAJC13 / RFU, GNAQ / Fold change vs veh, GNAQ / RFU, CDK5R1 / Fold change vs veh, CDK5R1 / RFU, ZRANB3 / Fold change vs veh, ZRANB3 / RFU, CUL4A / Fold change vs veh, CUL4A / RFU, CCNY / Fold change vs veh, CCNY / RFU, UFL1 / Fold change vs veh, UFL1 / RFU, COG3 / Fold change vs veh, COG3 / RFU, DIAPH2 / Fold change vs veh, DIAPH2 / RFU, SKA2 / Fold change vs veh, SKA2 / RFU, AFF3 / Fold change vs veh, AFF3 / RFU, LMF1 / Fold change vs veh, LMF1 / RFU, IPO11 / Fold change vs veh, IPO11 / RFU, DFFB / Fold change vs veh, DFFB / RFU, FOXP1 / Fold change vs veh, FOXP1 / RFU, CARD8 / Fold change vs veh, CARD8 / RFU, STRN3 / Fold change vs veh, STRN3 / RFU, ADK / Fold change vs veh, ADK / RFU, RASSF2 / Fold change vs veh, RASSF2 / RFU, WIPF1 / Fold change vs veh, WIPF1 / RFU, LARP1B / Fold change vs veh, LARP1B / RFU, RASA1 / Fold change vs veh, RASA1 / RFU, RB1 / Fold change vs veh, RB1 / RFU, PPFIA1 / Fold change vs veh, PPFIA1 / RFU, MAT2A / Fold change vs veh, MAT2A / RFU, CCT5 / Fold change vs veh, CCT5 / RFU, WDR92 / Fold change vs veh, WDR92 / RFU, CUX1 / Fold change vs veh, CUX1 / RFU, TTC7A / Fold change vs veh, TTC7A / RFU, TMEM135 / Fold change vs veh, TMEM135 / RFU, DEPTOR / Fold change vs veh, DEPTOR / RFU, CPM / Fold change vs veh, CPM / RFU, DNAJB6 / Fold change vs veh, DNAJB6 / RFU, CACNA2D3 / Fold change vs veh, CACNA2D3 / RFU, DTX4 / Fold change vs veh, DTX4 / RFU, TFCP2 / Fold change vs veh, TFCP2 / RFU, GMCL1 /// GMCL1P1 / Fold change vs veh, GMCL1 /// GMCL1P1 / RFU, AEBP2 / Fold change vs veh, AEBP2 / RFU, SNHG1 /// SNORD22 /// SNORD25 /// SNORD26 /// SNORD27 /// SNORD28 /// SNORD29 /// SNORD31 / Fold change vs veh, SNHG1 /// SNORD22 /// SNORD25 /// SNORD26 /// SNORD27 /// SNORD28 /// SNORD29 /// SNORD31 / Fold change (Aza/veh), C12orf56 (ProbeSet 11735607_a_at) / Fold change (ACY-1035/veh), C12orf56 (ProbeSet 11735607_a_at) / Fold change (Aza/veh), FGFR1OP (ProbeSet 11751329_s_at) / Fold change (ACY-1035/veh), FGFR1OP (ProbeSet 11751329_s_at) / Fold change (Aza/veh), VPS36 (ProbeSet 11739960_a_at) / Fold change (ACY-1035/veh), VPS36 (ProbeSet 11739960_a_at) / RFU SYPL1 (11715823_x_at) / Fold change /veh SYPL1 (11715823_x_at) / RFU IGFBP7 (11715501_s_at) / Fold change /veh IGFBP7 (11715501_s_at) / RFU REEP3 (11722064_at) / Fold change /veh REEP3 (11722064_at) / RFU IGLL1 (11728026_x_at) / Fold change /veh IGLL1 (11728026_x_at): dose or concentration left out as unconfirmed
Conditions: ProbeSet 11722302_a_at; LIST B

## Nc1ncn([C@@H]2O[C@H](CO)[C@@H](O)[C@H]2O)c(=O)n1 [azacitidine]
  RFU, LRRFIP1: 130.71 RFU
